Source: PubChem BioAssay (NCI)
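The compound was tested at five concentrations on cells cultured in 96-well plates, with a 48-hour exposure period. Here, GI50 denotes the concentration required for 50% inhibition of growth. The concentration for full growth arrest is given as TGI.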

How the values were obtained:
Experiment in all cases: growth of human tumour cells (NCI), 48 h
[1] = test system: HOP-92 NSCLC
[2] = test system: MDA-MB-435
[3] = test system: T-47D breast
[4] = test system: MDA-MB-231 breast
[5] = test system: U251 CNS
[6] = test system: SNB-75 CNS
[7] = test system: RXF 393 renal
[8] = test system: MALME-3M melanoma
[9] = test system: 786-0 renal
[10] = test system: K-562 leukemia
[11] = test system: LOX IMVI melanoma
[12] = test system: MCF7 breast
[13] = test system: OVCAR-8 ovarian
[14] = test system: OVCAR-5 ovarian
[15] = test system: SF-268 CNS
[16] = test system: HT29 colon
[17] = test system: M14 melanoma
[18] = test system: OVCAR-4 ovarian
[19] = test system: SK-MEL-2 melanoma
[20] = test system: UACC-62 melanoma
[21] = test system: SNB-19 CNS
[22] = test system: SK-MEL-5 melanoma
[23] = test system: SK-OV-3 ovarian
[24] = test system: HOP-62 NSCLC
[25] = test system: KM12 colon
[26] = test system: OVCAR-3 ovarian
[27] = test system: SF-539 CNS
[28] = test system: TK-10 renal
[29] = test system: COLO 205 colon
[30] = test system: HCT-116 colon
[31] = test system: SR leukemia
[32] = test system: CCRF-CEM leukemia
[33] = test system: UO-31 renal
[34] = test system: IGROV1 ovarian
[35] = test system: BT-549 breast
[36] = test system: MOLT-4 leukemia
[37] = test system: PC-3 prostate
[38] = test system: NCI-H460 lung
[39] = test system: SN12C renal
[40] = test system: EKVX NSCLC
[41] = test system: ACHN renal
[42] = test system: SF-295 CNS
[43] = test system: NCI-H23 lung
[44] = test system: HL-60(TB) leukemia
[45] = test system: CAKI-1 renal
[46] = test system: NCI-H226 lung
[47] = test system: DU-145 prostate
[48] = test system: UACC-257 melanoma
[49] = test system: HCT-15 colon
[50] = test system: SK-MEL-28 melanoma
[51] = test system: SW-620 colon
[52] = test system: A549 NSCLC
[53] = test system: NCI/ADR-RES ovarian

Work on `Cn1ncc2c(Sc3ccc(Cl)cc3)ncnc21` yielded a GI50 [1] of 3.31 µM, a TGI [1] of over 100 µM and a GI50 [2] of 22.5 µM. It also gave a TGI [2] of over 100 µM, a GI50 [3] of 14.4 µM and a TGI [3] of over 100 µM. For the same compound, the GI50 [4] was 13.2 µM, the TGI [4] was over 100 µM and the GI50 [5] was 16.2 µM. The TGI [5] was over 100 µM, the GI50 [6] was 22.9 µM and the TGI [6] was over 100 µM. The GI50 [7] was 98.4 µM, the TGI [7] was over 100 µM and the GI50 [8] was 57.4 µM. The TGI [8] was over 100 µM, the GI50 [9] was 44.1 µM and the TGI [9] was over 100 µM. For the same compound, the GI50 [10] was over 100 µM, the TGI [10] was over 100 µM and the GI50 [11] was 12 µM. The TGI [11] was over 100 µM, the GI50 [12] was over 100 µM and the TGI [12] was over 100 µM. The GI50 [13] was over 100 µM, the TGI [13] was over 100 µM and the GI50 [14] was over 100 µM. The TGI [14] was over 100 µM, the GI50 [15] was 7.26 µM and the TGI [15] was over 100 µM. It also gave a GI50 [16] of over 100 µM, a TGI [16] of over 100 µM and a GI50 [17] of 93.5 µM. For the same compound, the TGI [17] was over 100 µM, the GI50 [18] was 36 µM and the TGI [18] was over 100 µM. For the same compound, the GI50 [19] was over 100 µM, the TGI [19] was over 100 µM and the GI50 [20] was 77.8 µM. The TGI [20] was over 100 µM, the GI50 [21] was 26.9 µM and the TGI [21] was over 100 µM. It also gave a GI50 [22] of 51.5 µM, a TGI [22] of over 100 µM and a GI50 [23] of 67.9 µM. For the same compound, the TGI [23] was over 100 µM, the GI50 [24] was 28.8 µM and the TGI [24] was over 100 µM. For the same compound, the GI50 [25] was 11.6 µM, the TGI [25] was over 100 µM and the GI50 [26] was 36.5 µM. The TGI [26] was over 100 µM, the GI50 [27] was 68.1 µM and the TGI [27] was over 100 µM. It also gave a GI50 [28] of over 100 µM, a TGI [28] of over 100 µM and a GI50 [29] of over 100 µM. The TGI [29] was over 100 µM, the GI50 [30] was 55.1 µM and the TGI [30] was over 100 µM. It also gave a GI50 [31] of 20.6 µM, a TGI [31] of over 100 µM and a GI50 [32] of 4.8 µM. For the same compound, the TGI [32] was over 100 µM, the GI50 [33] was 5.53 µM and the TGI [33] was over 100 µM. The GI50 [34] was 4.36 µM, the TGI [34] was 49.8 µM and the GI50 [35] was 27.3 µM. It also gave a TGI [35] of over 100 µM, a GI50 [36] of 10.3 µM and a TGI [36] of over 100 µM. The GI50 [37] was 7.03 µM, the TGI [37] was over 100 µM and the GI50 [38] was 21.3 µM. The TGI [38] was over 100 µM, the GI50 [39] was 7.37 µM and the TGI [39] was over 100 µM. It also gave a GI50 [40] of 10.5 µM, a TGI [40] of over 100 µM and a GI50 [41] of over 100 µM. It also gave a TGI [41] of over 100 µM, a GI50 [42] of 9.58 µM and a TGI [42] of over 100 µM. The GI50 [43] was 15.9 µM, the TGI [43] was over 100 µM and the GI50 [44] was 11.3 µM. For the same compound, the TGI [44] was over 100 µM, the GI50 [45] was 15.4 µM and the TGI [45] was over 100 µM. For the same compound, the GI50 [46] was 36.5 µM, the TGI [46] was over 100 µM and the GI50 [47] was 36.1 µM. The TGI [47] was over 100 µM, the GI50 [48] was over 100 µM and the TGI [48] was over 100 µM. It also gave a GI50 [49] of over 100 µM, a TGI [49] of over 100 µM and a GI50 [50] of over 100 µM. For the same compound, the TGI [50] was over 100 µM, the GI50 [51] was over 100 µM and the TGI [51] was over 100 µM. For the same compound, the GI50 [52] was 18.8 µM, the TGI [52] was over 100 µM and the GI50 [53] was 21.7 µM. For the same compound, the TGI [53] was over 100 µM.
